pIC50: −log10 of the molar value.
Experiments:
[1] = molecular target: T1, CDK12 (nuclear staining in CAL-120 cells) (Homo sapiens, UniProt Q9NYV4); test: CDK12 nuclear protein level: immunofluorescence/high content analysis (CAL-120); assay type: cell-based; details: for DC50: CAL-120 cells, 24 h, immunofluorescence, 50% reduction of nuclear CDK12 staining intensity, median, read-out: CDK12 degradation IF, DC50- [mol/l] (median); for (IC50 CDK12 high ATP) to (Degradation DC50 CDK12) ratio: ratio of IC50 CDK12 high ATP kinase assay to DC50 CDK12 degradation (IF, CAL-120)
T1 construct: endogenous in cells; host or cells: CAL-120 human breast cancer cells (DSMZ ACC 459)
Procedure, shortened: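 DC50 is the degrader concentration that halves nuclear CDK12 immunofluorescence relative to controls, measured by high-content imaging. CAL-120 cells were exposed to compound for 24 h at 37 °C before PFA fixation, and signal was normalized to DMSO and control wells.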

CDK12/CycK = CDK12/CycK (Homo sapiens, UniProt Q9NYV4); test: CDK12/CycK high ATP kinase assay (TR-FRET, 2 mM ATP); assay type: biochemical; details: 2 mM ATP (high ATP); median; read-out: CDK12/CyclinK, 2 mM ATP (high ATP), IC50-[mol/l] (median)
Procedure, shortened: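 Read-out is TR-FRET (Eu-anti-rabbit IgG, anti-phospho-c-Myc Ser62 antibody, streptavidin-XL665) after EDTA stop. Reaction ran 60 min at 22 °C using 1 µM biotin-peptide and high ATP (2 mM) with roughly 0.75 nM recombinant CDK12/CycK, after 15 min compound pre-binding; normalised emission ratios yield IC50.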

Sequence of CDK12/CycK (Q9NYV4 with tags, fused parts or gaps): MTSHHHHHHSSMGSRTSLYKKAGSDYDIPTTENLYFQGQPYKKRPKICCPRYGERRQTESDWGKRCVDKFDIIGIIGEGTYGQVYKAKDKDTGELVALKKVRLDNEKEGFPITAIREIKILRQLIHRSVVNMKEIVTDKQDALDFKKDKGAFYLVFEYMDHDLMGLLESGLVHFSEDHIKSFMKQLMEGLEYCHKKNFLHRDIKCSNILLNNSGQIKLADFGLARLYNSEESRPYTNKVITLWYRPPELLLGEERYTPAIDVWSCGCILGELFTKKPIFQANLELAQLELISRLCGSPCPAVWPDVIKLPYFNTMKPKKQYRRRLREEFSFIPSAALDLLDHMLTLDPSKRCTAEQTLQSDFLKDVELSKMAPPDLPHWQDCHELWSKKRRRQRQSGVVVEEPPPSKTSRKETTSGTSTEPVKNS
Sequence of CDK12/CycK (O75909 1-300 partner limits assumed): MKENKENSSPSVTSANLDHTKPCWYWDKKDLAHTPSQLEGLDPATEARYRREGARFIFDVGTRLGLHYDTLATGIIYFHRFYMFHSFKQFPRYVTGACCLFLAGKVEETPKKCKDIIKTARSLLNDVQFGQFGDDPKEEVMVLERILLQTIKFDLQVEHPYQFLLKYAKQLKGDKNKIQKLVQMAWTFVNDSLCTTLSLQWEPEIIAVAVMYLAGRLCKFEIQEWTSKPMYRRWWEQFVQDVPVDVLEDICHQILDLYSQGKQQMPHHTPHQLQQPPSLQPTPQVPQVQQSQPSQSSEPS
T1 sequence (Q9NYV4 whole entry): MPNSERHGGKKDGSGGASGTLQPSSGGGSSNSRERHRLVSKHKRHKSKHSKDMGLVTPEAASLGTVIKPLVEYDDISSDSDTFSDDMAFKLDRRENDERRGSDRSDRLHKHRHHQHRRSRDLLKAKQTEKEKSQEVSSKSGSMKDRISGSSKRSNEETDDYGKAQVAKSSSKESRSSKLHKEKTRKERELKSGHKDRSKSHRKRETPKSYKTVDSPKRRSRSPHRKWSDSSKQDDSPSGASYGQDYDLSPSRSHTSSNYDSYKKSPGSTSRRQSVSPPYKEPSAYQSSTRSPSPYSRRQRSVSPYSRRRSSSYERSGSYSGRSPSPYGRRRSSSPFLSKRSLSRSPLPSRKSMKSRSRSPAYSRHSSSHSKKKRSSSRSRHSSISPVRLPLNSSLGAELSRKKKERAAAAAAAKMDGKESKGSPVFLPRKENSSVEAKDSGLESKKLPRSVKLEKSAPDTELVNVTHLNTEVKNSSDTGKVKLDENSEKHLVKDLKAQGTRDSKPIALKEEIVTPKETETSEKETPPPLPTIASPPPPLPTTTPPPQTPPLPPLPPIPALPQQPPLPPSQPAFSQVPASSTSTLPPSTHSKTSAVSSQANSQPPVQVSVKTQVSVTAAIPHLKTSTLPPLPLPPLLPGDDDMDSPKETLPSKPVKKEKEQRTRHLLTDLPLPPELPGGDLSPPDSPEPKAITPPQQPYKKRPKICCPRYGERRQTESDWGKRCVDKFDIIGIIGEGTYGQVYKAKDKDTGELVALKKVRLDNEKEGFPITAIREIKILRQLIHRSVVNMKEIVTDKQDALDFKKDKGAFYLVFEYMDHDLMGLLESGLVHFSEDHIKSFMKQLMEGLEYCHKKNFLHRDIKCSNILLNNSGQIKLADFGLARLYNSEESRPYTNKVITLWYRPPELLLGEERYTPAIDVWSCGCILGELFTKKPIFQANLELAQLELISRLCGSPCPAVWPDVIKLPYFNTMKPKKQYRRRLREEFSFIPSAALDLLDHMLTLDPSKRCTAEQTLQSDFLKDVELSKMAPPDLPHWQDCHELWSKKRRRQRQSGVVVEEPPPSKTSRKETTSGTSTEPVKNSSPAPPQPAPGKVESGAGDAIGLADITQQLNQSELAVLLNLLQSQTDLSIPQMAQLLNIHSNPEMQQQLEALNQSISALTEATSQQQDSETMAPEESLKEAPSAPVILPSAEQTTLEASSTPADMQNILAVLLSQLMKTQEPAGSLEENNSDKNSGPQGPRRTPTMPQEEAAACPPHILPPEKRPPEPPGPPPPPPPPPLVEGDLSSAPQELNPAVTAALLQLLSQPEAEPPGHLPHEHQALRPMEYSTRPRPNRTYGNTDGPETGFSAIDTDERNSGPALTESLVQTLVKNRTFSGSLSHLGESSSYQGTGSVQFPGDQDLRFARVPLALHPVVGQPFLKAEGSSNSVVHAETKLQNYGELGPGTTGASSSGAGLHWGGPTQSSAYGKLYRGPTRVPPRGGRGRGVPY
T1 sequence (O75909 whole entry partner): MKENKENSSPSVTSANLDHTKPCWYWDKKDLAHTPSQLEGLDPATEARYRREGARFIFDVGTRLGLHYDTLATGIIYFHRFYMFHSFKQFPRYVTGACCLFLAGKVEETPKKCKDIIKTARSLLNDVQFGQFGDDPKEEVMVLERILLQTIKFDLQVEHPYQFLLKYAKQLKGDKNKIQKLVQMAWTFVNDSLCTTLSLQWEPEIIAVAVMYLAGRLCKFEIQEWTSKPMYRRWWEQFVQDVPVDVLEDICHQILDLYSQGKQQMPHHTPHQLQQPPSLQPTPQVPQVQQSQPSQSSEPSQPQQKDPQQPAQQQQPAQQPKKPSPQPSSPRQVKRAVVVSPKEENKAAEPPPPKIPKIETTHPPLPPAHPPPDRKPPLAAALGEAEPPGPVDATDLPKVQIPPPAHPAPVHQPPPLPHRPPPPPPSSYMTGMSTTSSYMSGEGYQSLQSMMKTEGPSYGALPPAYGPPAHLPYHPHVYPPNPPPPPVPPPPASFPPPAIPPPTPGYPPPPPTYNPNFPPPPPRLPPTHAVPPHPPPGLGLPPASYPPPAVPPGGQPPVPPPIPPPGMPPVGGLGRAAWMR

Row | SMILES | DC50 [1] | (IC50 CDK12 high ATP) to (Degradation DC50 CDK12) ratio [1] | pIC50 (CDK12/CycK)
1 | N[C@@H]1CN(c2nc(NCc3nc4ccccc4[nH]3)n3ncc(Br)c3n2)CC12CC2 [Example 251, 2-[(7S)-7-amino-5-azaspiro[2.4]heptan-5-yl]-N-[(1H-benzimidazol-2-yl)methyl]-8-bromopyrazolo[1,5-a][1,3,5]triazin-4-amine] | 0.145 nM | 6727 | 6.01
2 | N[C@H]1[C@@H]2C[C@H]1CN(c1nc(NCc3nc4ccccc4[nH]3)n3ncc(Br)c3n1)C2 [Example 288, 2-[(1R,5S,6r)-6-amino-3-azabicyclo[3.1.1]heptan-3-yl]-N-[(1H-benzimidazol-2-yl)methyl]-8-bromopyrazolo[1,5-a][1,3,5]triazin-4-amine] | 1.16 nM | 2920 | 5.47
3 | CC1(O)CCN(c2nc(NCc3nc4ccccc4[nH]3)n3ncc(Br)c3n2)C1 (single isomer, unassigned) [Example 282, (3R or S)-1-(4-{[(1H-benzimidazol-2-yl)methyl]amino}-8-bromopyrazolo[1,5-a][1,3,5]triazin-2-yl)-3-methylpyrrolidin-3-ol] | 27.9 nM | >320 | < 5.05
4 | CN[C@H]1CCN(c2nc(NCc3nc4ccccc4[nH]3)n3ncc(Br)c3n2)C1 [Example 252, N-[(1H-benzimidazol-2-yl)methyl]-8-bromo-2-[(3S)-3-(methylamino)pyrrolidin-1-yl]pyrazolo[1,5-a][1,3,5]triazin-4-amine] | 1.17 nM | >17030 | < 4.70
5 | CC(C)CNc1nc(NCc2nc3ccccc3[nH]2)n2ncc(Br)c2n1 [Example 285, N^4-[(1H-benzimidazol-2-yl)methyl]-8-bromo-N^2-(2-methylpropyl)pyrazolo[1,5-a][1,3,5]triazine-2,4-diamine] | 32.3 nM | 200 | 5.19
6 | CN[C@@H]1CCN(c2nc(NCc3nc4ccccc4[nH]3)n3ncc(Br)c3n2)C1 [Example 253, N-[(1H-benzimidazol-2-yl)methyl]-8-bromo-2-[(3R)-3-(methylamino)pyrrolidin-1-yl]pyrazolo[1,5-a][1,3,5]triazin-4-amine] | 0.875 nM | >22856 | < 4.70
7 | NC12CC1CN(c1nc(NCc3nc4ccccc4[nH]3)n3ncc(Br)c3n1)C2 (stereo not drawn) [Example 258, 2-(1-amino-3-azabicyclo[3.1.0]hexan-3-yl)-N-(1H-benzimidazol-2-ylmethyl)-8-bromo-pyrazolo[1,5-a][1,3,5]triazin-4-amine] | 3.79 nM | 1239 | 5.33
8 | CC1(N)CCN(c2nc(NCc3nc4ccccc4[nH]3)n3ncc(Br)c3n2)CC1 [Example 290, 2-(4-amino-4-methylpiperidin-1-yl)-N-[(1H-benzimidazol-2-yl)methyl]-8-bromopyrazolo[1,5-a][1,3,5]triazin-4-amine] | 21.5 nM | >920 | < 4.70
9 | NC1(C(F)(F)F)CCN(c2nc(NCc3nc4ccccc4[nH]3)n3ncc(Br)c3n2)C1 (stereo not drawn) [Example 266, 2-[3-amino-3-(trifluoromethyl)pyrrolidin-1-yl]-N-(1H-benzimidazol-2-ylmethyl)-8-bromo-pyrazolo[1,5-a][1,3,5]triazin-4-amine] | 52.4 nM | 66 | 5.46
10 | Brc1cnn2c(NCc3nc4ccccc4[nH]3)nc(N3C[C@@H]4CN[C@@H]4C3)nc12.O=C(O)C(F)(F)F [Example 267, trifluoroacetic acid-N-[(1H-benzimidazol-2-yl)methyl]-8-bromo-2-[(1S,5S)-3,6-diazabicyclo[3.2.0]heptan-3-yl]pyrazolo[1,5-a][1,3,5]triazin-4-amine (1/1)] | 31.9 nM | >627 | < 4.70
11 | CN1CCN(c2nc(NCc3nc4ccccc4[nH]3)n3ncc(C(F)(F)F)c3n2)CC1 [Example 297, N-[(1H-benzimidazol-2-yl)methyl]-2-(4-methylpiperazin-1-yl)-8-(trifluoromethyl)pyrazolo[1,5-a][1,3,5]triazin-4-amine] | 7.59 nM | 2294 | 4.76

Results, then the molecule that gave them:

Row | DC50 [1] | (IC50 CDK12 high ATP) to (Degradation DC50 CDK12) ratio [1] | pIC50 (CDK12/CycK) | SMILES
12 | 3.9 nM | 2616 | 4.99 | Cc1cc2nc(CNc3nc(N4CCN(C)CC4)nc4c(C5CC5)cnn34)[nH]c2cc1C [Example 312, 8-cyclopropyl-N-[(5,6-dimethyl-1H-benzimidazol-2-yl)methyl]-2-(4-methylpiperazin-1-yl)pyrazolo[1,5-a][1,3,5]triazin-4-amine]
13 | 1.44 nM | 512 | 6.01 | Fc1ccc2[nH]c(CNc3nc(N4CCOCC4)nc4c(C(F)(F)F)cnn34)nc2c1 [Example 273, N-[(5-fluoro-1H-benzimidazol-2-yl)methyl]-2-(morpholin-4-yl)-8-(trifluoromethyl)pyrazolo[1,5-a][1,3,5]triazin-4-amine]
14 | 5.38 nM | 2107 | 4.95 | Fc1ccc2[nH]c(CNc3nc(N4CCOCC4)nc4c(C5CC5(F)F)cnn34)nc2c1 (racemic) [Example 286, 8-[(1RS)-2,2-difluorocyclopropyl]-N-[(5-fluoro-1H-benzimidazol-2-yl)methyl]-2-(morpholin-4-yl)pyrazolo[1,5-a][1,3,5]triazin-4-amine]
15 | 3 nM | >4287 | < 4.89 | CN1CCN(c2nc(NCc3nc4ccccc4[nH]3)n3ncc(C4CC4)c3n2)CC1 [Example 246, N-[(1H-benzimidazol-2-yl)methyl]-8-cyclopropyl-2-(4-methylpiperazin-1-yl)pyrazolo[1,5-a][1,3,5]triazin-4-amine]
16 | 3.55 nM | 627 | 5.65 | Fc1ccc2[nH]c(CNc3nc(N4CCOCC4)nc4c(C5CCC5)cnn34)nc2c1F [Example 264, 8-cyclobutyl-N-[(4,5-difluoro-1H-benzimidazol-2-yl)methyl]-2-(morpholin-4-yl)pyrazolo[1,5-a][1,3,5]triazin-4-amine]
17 | 8.26 nM | 190 | 5.80 | Fc1cc2nc(CNc3nc(N4CCOCC4)nc4c(C5CC5)cnn34)[nH]c2cc1Cl [Example 307, N-[(6-chloro-5-fluoro-1H-benzimidazol-2-yl)methyl]-8-cyclopropyl-2-(morpholin-4-yl)pyrazolo[1,5-a][1,3,5]triazin-4-amine]
18 | 0.946 nM | 9730 | 5.04 | C[C@@H]1CN(c2nc(NCc3nc4ccccc4[nH]3)n3ncc(C4CC4)c3n2)C[C@H](C)N1 [Example 248, N-[(1H-benzimidazol-2-yl)methyl]-8-cyclopropyl-2-[(3R,5S)-3,5-dimethylpiperazin-1-yl]pyrazolo[1,5-a][1,3,5]triazin-4-amine]
19 | 1.18 nM | 2070 | 5.61 | Fc1ccc2[nH]c(CNc3nc(N4CCOCC4)nc4c(C5CC5(F)F)cnn34)nc2c1F (stereo not drawn) [Example 278, N-[(4,5-difluoro-1H-benzimidazol-2-yl)methyl]-8-(2,2-difluorocyclopropyl)-2-(morpholin-4-yl)pyrazolo[1,5-a][1,3,5]triazin-4-amine]
20 | 11 nM | 155 | 5.77 | Fc1cccc2[nH]c(CNc3nc(N4CCOCC4)nc4c(CC(F)(F)F)cnn34)nc12 [Example 303, N-[(4-fluoro-1H-benzimidazol-2-yl)methyl]-2-(morpholin-4-yl)-8-(2,2,2-trifluoroethyl)pyrazolo[1,5-a][1,3,5]triazin-4-amine]
21 | 17.9 nM | >1120 | < 4.70 | CCNC1CCN(c2nc(NCc3nc4ccccc4[nH]3)n3ncc(Br)c3n2)CC1 [Example 300]
22 | 1.9 nM | 1120 | 5.67 | Fc1ccc2[nH]c(CNc3nc(N4CCOCC4)nc4c(CC(F)(F)F)cnn34)nc2c1F [Example 268, N-[(4,5-difluoro-1H-benzimidazol-2-yl)methyl]-2-(morpholin-4-yl)-8-(2,2,2-trifluoroethyl)pyrazolo[1,5-a][1,3,5]triazin-4-amine]
23 | 38.8 nM | >516 | < 4.70 | Fc1ccc2[nH]c(CNc3nc(N4CCOCC4)nc4c(C5CCOCC5)cnn34)nc2c1F [Example 276, N-[(4,5-difluoro-1H-benzimidazol-2-yl)methyl]-2-(morpholin-4-yl)-8-(oxan-4-yl)pyrazolo[1,5-a][1,3,5]triazin-4-amine]
24 | 6.48 nM | >2626 | < 4.77 | c1ccc2[nH]c(CNc3nc(N4C[C@@H]5CCCN[C@@H]5C4)nc4c(C5CC5)cnn34)nc2c1 [Example 249, N-[(1H-benzimidazol-2-yl)methyl]-8-cyclopropyl-2-[(4aS,7aS)-octahydro-6H-pyrrolo[3,4-b]pyridin-6-yl]pyrazolo[1,5-a][1,3,5]triazin-4-amine]
